The results in this text go back to US9556191B2, “Aminoquinazoline derivatives and their salts and methods of use thereof” (SUNSHINE LAKE PHARMA CO., LTD, priority 2013, dated 2017).

In general, IC50 refers to the concentration that gives 50% inhibition. Lower therefore signals greater potency in that assay. As usually defined, the AUC(0-t) is exposure summed from dosing to a finite time, without extrapolation to infinity. Read a high AUC(0-t) as high exposure. The Cmax is the peak of the concentration-time curve. The term half-life denotes how long it takes for the measured level to halve. Low readings indicate fast loss, high ones slow loss. One may read the bioavailability as the share of a dose that reaches the circulation, judged against a reference dose that is usually intravenous.

For series [1], the target named is EGFR (human epidermal growth factor receptor) (Homo sapiens (Human), UniProt P00533). The series is described as follows: In vitro kinase inhibitory activity, EGFR. Format: biochemical. The method, then:
(§1) Stop buffer was prepared from 100 mM HEPES, pH 7.5, 0.015% Brij-35, 0.2% Coating Reagent #3, and 50 mM EDTA.
(§2) Kinase reaction was performed according to the following procedures: (1) 2.5× kinase solution was prepared by adding kinase into 1× kinase base buffer; (2) 2.5× peptide solution was prepared by adding FAM-labeled peptide and ATP into 1× kinase base buffer; (3) 2.5× kinase solution (10 μL) was added to each well of the 384-well assay plate containing 5 μL of compound in 10% DMSO and then the assay plate was incubated at room temperature for 10 minutes; (4) 2.5× peptide solution (10 μL) was added to each well of the 384-well assay plate; and (5) stop buffer (25 μL) was added to stop the kinase reaction after incubation at 28° C. for a specified period of time.
(§3) Multifunctional microplate reader (BMG LABTECH, PHER Astar FS) with a 320 nm excitation wavelength was used to read and collected the data of by absorbing light at […], which was converted from the rate of 665 signal/620 signal.
(§4) Conversion data were copied, and then converted to inhibition values with the following formula: percent inhibition=(max−conversion)/(max−min)*100 where “max” stands for the DMSO control value, “conversion” stands for the sample value and “[…]” stands for the no-kinase control value. The data were fitted in XLfit to obtain IC50 values.

Series [2] has as its target HER2 (human epidermal growth factor receptor 2) (Homo sapiens (Human), UniProt P04626). The experiment in a line: In vitro kinase inhibitory activity, HER-2. Format: biochemical. The method, then:
as §1
as §2, with “time. […]” for “time.”
as §4

Series [3] has as its target EGFR T790M (human epidermal growth factor receptor T790M mutation) (Homo sapiens (Human), UniProt P00533, T790M). The experiment in a line: In vitro kinase inhibitory activity, EGFR T790M. In kind it is biochemical. The procedure:
as §1, §2, §3, §4

A short description of series [4]: Rat PK (pharmacokinetics after iv and po administration). In kind it is in vivo. The following applies: male, SD, plasma; for Vd: read-out: Vss. The source says:
Materials used include Propranolol (internal standard), methyl alcohol, ammonium acetate, K2EDTA (potassium ethylenediaminetetraacetate), methane acid, acetonitrile, MTBE (methyl tert-butyl ether), Cremophor EL (polyoxyethylated castor oil), KolliphorHS 15 (polyethylene glycol 12-hydroxystearate), DMSO (dimethylsulfoxide), PEG400 (polyethylene glycol 400) and SD rat (male, 180-220 g, 7-8 weeks old, purchased from Hunan Slack King of Laboratory Animal Co., Ltd.), all of which are commercially available.
Each test compound prepared in above examples was completely dissolved in a mixture of 5% DMSO, 5% KolliphorHS 15 and 90% saline.
(1) The test sample stock solution was prepared by dissolving an accurately weighed test sample in DMSO followed by dilution to the concentration of 1 mg/mL with acetonitrile. The stock solution was stored under the condition of −20° C. for later use.
(2) Internal standard solution was prepared by diluting a certain amount of the Propranolol stock solution in the concentration of 1 mg/mL to 100 ng/mL with water.
Samples treated with liquid-liquid extraction and chromatographic separation were analyzed by triple quadrupole tandem mass spectrometer in multiple reaction monitoring (MRM) mode for quantitative analysis.
Pretreatment of plasma sample was performed according to the following procedures: (1) plasma sample (30 μL) was precisely measured, and internal standard (250 μL) was then added to the plasma sample which was then mixed by vortexing; (2) the sample was extracted once with 1 mL of MTBE and then centrifuged at 13000 rpm for 2 minutes at 4° C.; (3) supernatant (800 μL) was aspirated and dried with 96 holes nitrogen gas blowing; (4) the residue was dissolved with 150 μL of a mixture of methanol and water (v/v=1/1) and then mixed by vortexing; and (5) sampling: sample quantity was 8 μL.
Preparation of standard sample was performed according to the following procedures: (1) a pre-determined amount of the compound stock solution was precisely measured, and then was diluted to standard series of solution with acetonitrile; (2) each of the standard solution (20 μL) prepared above was precisely measured and to each was added 180 μL of blank plasma; (3) each sample was mixed by vortexing to obtain series of standard samples in which the plasma concentration was 3, 5, 10, 30, 100, 300, 1000, 3000, 5000 or 10000 ng/mL; and (4) standard curve was established.
The content of each test compound in rat plasma after administration was determined by LC/MS/MS.
Noncompartmental analysis to calculate pharmacokinetic parameters was performed with WinNonlin 6.1 software.

Setting [5] is: iv(2 g/kg) [sic], method says 2 mg/kg.
[6] abbreviates: po(5 g/kg) [sic], method says 5 mg/kg.

Chain of EGFR (human epidermal growth factor receptor) (P00533 25-1210): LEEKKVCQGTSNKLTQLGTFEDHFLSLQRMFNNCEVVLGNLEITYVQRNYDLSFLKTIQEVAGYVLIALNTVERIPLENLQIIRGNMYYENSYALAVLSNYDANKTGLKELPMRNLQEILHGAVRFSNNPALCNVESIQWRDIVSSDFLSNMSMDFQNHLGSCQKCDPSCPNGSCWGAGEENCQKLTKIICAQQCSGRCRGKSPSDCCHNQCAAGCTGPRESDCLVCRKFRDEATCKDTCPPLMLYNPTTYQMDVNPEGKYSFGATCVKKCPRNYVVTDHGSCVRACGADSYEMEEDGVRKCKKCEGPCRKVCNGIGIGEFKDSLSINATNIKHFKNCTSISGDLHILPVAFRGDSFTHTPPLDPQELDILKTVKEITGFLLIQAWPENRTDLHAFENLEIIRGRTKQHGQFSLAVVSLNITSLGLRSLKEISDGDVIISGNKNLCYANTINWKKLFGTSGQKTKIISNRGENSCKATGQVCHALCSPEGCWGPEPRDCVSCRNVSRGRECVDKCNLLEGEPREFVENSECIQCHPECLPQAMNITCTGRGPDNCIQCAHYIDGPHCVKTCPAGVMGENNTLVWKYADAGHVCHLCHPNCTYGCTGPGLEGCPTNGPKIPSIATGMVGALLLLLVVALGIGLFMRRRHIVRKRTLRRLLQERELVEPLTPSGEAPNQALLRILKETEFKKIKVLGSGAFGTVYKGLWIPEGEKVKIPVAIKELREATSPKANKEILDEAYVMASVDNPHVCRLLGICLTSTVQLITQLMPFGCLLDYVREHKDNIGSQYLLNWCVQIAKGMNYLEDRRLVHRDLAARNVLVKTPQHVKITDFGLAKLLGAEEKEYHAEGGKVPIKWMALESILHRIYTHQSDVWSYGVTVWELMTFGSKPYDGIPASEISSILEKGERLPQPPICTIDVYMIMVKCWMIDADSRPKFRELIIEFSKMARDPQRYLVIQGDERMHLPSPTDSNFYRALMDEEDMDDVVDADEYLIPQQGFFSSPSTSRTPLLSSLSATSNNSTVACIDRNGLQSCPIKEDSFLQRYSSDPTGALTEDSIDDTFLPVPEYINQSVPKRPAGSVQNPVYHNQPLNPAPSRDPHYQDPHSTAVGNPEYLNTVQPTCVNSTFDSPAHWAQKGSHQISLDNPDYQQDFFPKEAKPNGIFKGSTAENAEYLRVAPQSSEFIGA
Chain of EGFR T790M (human epidermal growth factor receptor T790M mutation) (P00533 25-1210 T790M): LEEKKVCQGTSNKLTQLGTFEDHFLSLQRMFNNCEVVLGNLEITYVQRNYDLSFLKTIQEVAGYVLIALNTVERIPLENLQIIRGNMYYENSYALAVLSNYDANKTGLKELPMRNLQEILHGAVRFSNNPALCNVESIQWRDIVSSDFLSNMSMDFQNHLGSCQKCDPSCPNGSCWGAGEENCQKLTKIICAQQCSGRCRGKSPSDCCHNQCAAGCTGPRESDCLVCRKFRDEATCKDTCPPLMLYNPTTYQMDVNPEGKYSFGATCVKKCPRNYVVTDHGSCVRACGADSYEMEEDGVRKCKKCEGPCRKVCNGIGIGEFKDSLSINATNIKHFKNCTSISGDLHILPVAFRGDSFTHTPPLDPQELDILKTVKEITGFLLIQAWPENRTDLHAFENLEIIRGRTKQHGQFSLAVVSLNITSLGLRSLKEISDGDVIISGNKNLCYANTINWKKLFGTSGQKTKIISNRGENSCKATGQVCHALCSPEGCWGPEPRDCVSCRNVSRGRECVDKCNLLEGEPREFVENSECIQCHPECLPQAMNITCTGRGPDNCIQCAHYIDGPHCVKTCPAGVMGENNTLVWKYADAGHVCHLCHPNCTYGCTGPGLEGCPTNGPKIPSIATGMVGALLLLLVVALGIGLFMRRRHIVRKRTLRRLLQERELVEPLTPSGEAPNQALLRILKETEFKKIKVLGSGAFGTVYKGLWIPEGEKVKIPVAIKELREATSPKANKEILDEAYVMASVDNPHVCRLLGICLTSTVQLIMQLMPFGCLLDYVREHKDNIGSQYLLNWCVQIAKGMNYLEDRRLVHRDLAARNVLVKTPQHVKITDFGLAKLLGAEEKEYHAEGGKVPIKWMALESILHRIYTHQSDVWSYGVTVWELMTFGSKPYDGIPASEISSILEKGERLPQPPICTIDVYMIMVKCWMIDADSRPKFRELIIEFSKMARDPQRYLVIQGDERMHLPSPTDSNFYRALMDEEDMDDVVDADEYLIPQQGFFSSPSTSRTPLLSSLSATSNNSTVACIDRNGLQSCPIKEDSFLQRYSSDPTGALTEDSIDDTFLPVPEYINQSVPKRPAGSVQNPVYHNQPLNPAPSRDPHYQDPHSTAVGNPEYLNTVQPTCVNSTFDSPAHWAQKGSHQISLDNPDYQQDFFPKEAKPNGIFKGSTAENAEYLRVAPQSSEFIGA
Chain of HER2 (human epidermal growth factor receptor 2) (P04626 23-1255): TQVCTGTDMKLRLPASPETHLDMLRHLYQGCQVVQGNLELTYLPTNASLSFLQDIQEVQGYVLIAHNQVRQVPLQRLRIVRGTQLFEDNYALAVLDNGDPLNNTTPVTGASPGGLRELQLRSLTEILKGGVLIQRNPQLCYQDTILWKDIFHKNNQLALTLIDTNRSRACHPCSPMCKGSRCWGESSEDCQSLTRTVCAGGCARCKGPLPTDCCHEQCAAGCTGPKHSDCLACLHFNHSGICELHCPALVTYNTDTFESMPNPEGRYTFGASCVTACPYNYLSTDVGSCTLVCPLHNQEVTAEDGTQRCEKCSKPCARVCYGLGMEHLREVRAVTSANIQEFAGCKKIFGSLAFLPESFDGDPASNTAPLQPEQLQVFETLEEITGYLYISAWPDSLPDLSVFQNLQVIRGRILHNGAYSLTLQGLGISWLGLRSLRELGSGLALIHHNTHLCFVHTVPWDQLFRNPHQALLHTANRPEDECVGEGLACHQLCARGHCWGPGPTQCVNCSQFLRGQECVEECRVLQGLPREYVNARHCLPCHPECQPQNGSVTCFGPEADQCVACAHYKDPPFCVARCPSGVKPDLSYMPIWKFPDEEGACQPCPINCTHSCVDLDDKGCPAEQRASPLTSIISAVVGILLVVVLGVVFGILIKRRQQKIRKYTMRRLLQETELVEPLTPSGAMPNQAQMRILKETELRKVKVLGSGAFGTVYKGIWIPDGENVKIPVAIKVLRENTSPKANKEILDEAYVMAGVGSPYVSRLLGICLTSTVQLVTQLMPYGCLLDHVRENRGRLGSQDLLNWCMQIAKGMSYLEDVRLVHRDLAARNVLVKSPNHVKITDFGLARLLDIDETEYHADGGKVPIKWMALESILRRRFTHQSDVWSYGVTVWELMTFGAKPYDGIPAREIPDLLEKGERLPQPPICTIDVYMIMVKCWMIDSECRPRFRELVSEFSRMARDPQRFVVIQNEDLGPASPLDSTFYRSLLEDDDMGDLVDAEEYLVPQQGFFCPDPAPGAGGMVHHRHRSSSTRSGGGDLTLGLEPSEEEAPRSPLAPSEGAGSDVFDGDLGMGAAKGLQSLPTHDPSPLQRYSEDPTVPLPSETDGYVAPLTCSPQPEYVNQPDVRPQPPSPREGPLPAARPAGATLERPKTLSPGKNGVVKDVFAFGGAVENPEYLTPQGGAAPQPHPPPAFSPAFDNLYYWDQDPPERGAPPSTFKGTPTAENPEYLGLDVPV

`COCCOc1cc2ncnc(Nc3ccc(F)c(Cl)c3)c2cc1NC(=O)/C=C/CN1C[C@@H]2OCCO[C@@H]2C1` [Example 6, (E)-N-(4-((3-Chloro-4-fluorophenyl)amino)-7-(2-methoxyethoxy)quinazolin-6-yl)-4-((4aR,7aS)-tetrahydro-2H-[1,4]dioxino[2,3-c]pyrrol-6(3H)-yl)but-2-enamide]: the values for the IC50 in series [1], in series [2] and in series [3] were 1.8 nM, 10.4 nM and 8.7 nM, respectively.
As to `O=C(/C=C/CN1C[C@@H]2OCCO[C@@H]2C1)Nc1cc2c(Nc3ccc(F)c(Cl)c3)ncnc2cc1OCC(F)(F)F` [Example 7, (E)-N-(4-((3-Chloro-4-fluorophenyl)amino)-7-(2,2,2-trifluoroethoxy)quinazolin-6-yl)-4-((4aR,7aS)-tetrahydro-2H-[1,4]dioxino[2,3-c]pyrrol-6(3H)-yl)but-2-enamide], the IC50 in series [1] stood at 15.4 nM; in series [2], 44 nM; in series [3] it was 22.6 nM.
As to `O=C(/C=C/CN1C[C@@H]2OCCO[C@@H]2C1)Nc1ccc2ncnc(Nc3ccc(OCc4ccccn4)c(Cl)c3)c2c1` [Example 22, (E)-N-(4-((3-Chloro-4-(pyridin-2-ylmethoxy)phenyl)amino)quinazolin-6-yl)-4-((4aR,7aS)-tetrahydro-2H-[1,4]dioxino[2,3-c]pyrrol-6(3H)-yl)but-2-enamide], the IC50 stood at 22 nM in series [1], 1.9 nM in series [2] and 47.3 nM in series [3].
For `CCOc1cc2ncnc(Nc3ccc(F)c(Cl)c3)c2cc1NC(=O)/C=C/CN1C[C@@H]2OCCO[C@@H]2C1` [Example 3, (E)-N-(4-((3-Chloro-4-fluorophenyl)amino)-7-ethoxyquinazolin-6-yl)-4-((4aR,7aS)-tetrahydro-2H-[1,4]dioxin[2,3-c]pyrrol-6(3H)-yl)but-2-enamide] the same measures were 6.4 nM, 8.1 nM and 6.2 nM.
Turning to `O=C(/C=C/CN1C[C@@H]2OCCO[C@@H]2C1)Nc1cc2c(Nc3ccc(F)c(Cl)c3)ncnc2cc1O[C@H]1CCOC1` [Example 5, (E)-N-(4-((3-Chloro-4-fluorophenyl)amino)-7-(((S)-tetrahydrofuran-3-yl)oxy)quinazolin-6-yl)-4-((4aR,7aS)-tetrahydro-2H-[1,4]dioxino[2,3-c]pyrrol-6(3H)-yl)but-2-enamide], the IC50 was 3.6 nM in series [1], 11.7 nM in series [2] and 6.8 nM in series [3].
As for `COc1cc2ncnc(Nc3ccc(F)c(Cl)c3F)c2cc1NC(=O)/C=C/CN1C[C@@H]2OCCO[C@@H]2C1` [Example 35, (E)-N-(4-((3-Chloro-2,4-difluorophenyl)amino)-7-methoxyquinazolin-6-yl)-4-((4aR,7aS)-tetrahydro-2H-[1,4]dioxino[2,3-c]pyrrol-6(3H)-yl)but-2-enamide], the results for the IC50 in series [1], in series [2] and in series [3] were 0.9 nM, 17.8 nM and 20 nM, respectively.
Turning to `COc1cc2ncnc(Nc3ccc(OCc4cccc(F)c4)c(Cl)c3)c2cc1NC(=O)/C=C/CN1C[C@@H]2OCCO[C@@H]2C1` [Example 29, (E)-N-(4-((3-Chloro-4-((3-fluorobenzyl)oxy)phenyl)amino)-7-methoxyquinazolin-6-yl)-4-((4aR,7aS)-tetrahydro-2H-[1,4]dioxino[2,3-c]pyrrol-6(3H)-yl)but-2-enamide], the IC50 in series [2] worked out at 3.7 nM.
`COCCOc1cc2ncnc(Nc3ccc(Cl)c(Cl)c3F)c2cc1NC(=O)/C=C/CN1C[C@@H]2OCCO[C@@H]2C1` [Example 33, (E)-N-(4-((3,4-Dichloro-2-fluorophenyl)amino)-7-(2-methoxyethoxy)quinazolin-6-yl)-4-((4aR,7aS)-tetrahydro-2H-[1,4]dioxino[2,3-c]pyrrol-6(3H)-yl)but-2-enamide] yielded an IC50 in series [2] of 9.6 nM. In series [4] (setting [5]), the AUC(0-t) was found to be 1250 ng·h/mL, the Cmax was 890 ng/mL, the half-life was 1.29 h and the Vd stood at 2.77 L/kg. Also, the bioavailability in series [4] (po 5 vs iv 2 (g/kg [sic]; mg/kg in method), read-out: F (bioavailability)) turned out to be 44.5%. In series [4] (setting [6]), this molecule had an AUC(0-t) of 1370 ng·h/mL, a Cmax of 346 ng/mL and a half-life of 1.27 h.
For `O=C(/C=C/CN1C[C@@H]2OCCO[C@@H]2C1)Nc1ccc2ncnc(Nc3ccc4c(cnn4Cc4cccc(F)c4)c3)c2c1` [Example 26, (E)-N-(4-((1-(3-Fluorobenzyl)-1H-indazol-5-yl)amino)quinazolin-6-yl)-4-((4aR,7aS)-tetrahydro-2H-[1,4]dioxin[2,3-c]pyrrol-6(3H)-yl)but-2-enamide], the IC50 in series [1] was found to be 14 nM; in series [2], 1.6 nM; in series [3] it was 89.3 nM.
For `O=C(/C=C/CN1C[C@@H]2OCCO[C@@H]2C1)Nc1ccc2ncnc(Nc3ccc(OCc4cccc(F)c4)c(Cl)c3)c2c1` [Example 21, (E)-N-(4-((3-Chloro-4-((3-fluorobenzyl)oxy)phenyl)amino)quinazolin-6-yl)-4-((4aR,7aS)-tetrahydro-2H-[1,4]dioxino[2,3-c]pyrrol-6(3H)-yl)but-2-enamide] the same measures were 15 nM, 3.5 nM and 317 nM.
Turning to `CCOc1cc2ncnc(Nc3ccc(OCc4cccc(F)c4)c(Cl)c3)c2cc1NC(=O)/C=C/CN1C[C@@H]2OCCO[C@@H]2C1` [Example 30, (E)-N-(4-((3-Chloro-4-((3-fluorobenzyl)oxy)phenyl)amino)-7-ethoxyquinazolin-6-yl)-4-((4aR,7aS)-tetrahydro-2H-[1,4]dioxino[2,3-c]pyrrol-6(3H)-yl)but-2-enamide], the IC50 stood at 31.9 nM in series [1], 6.6 nM in series [2] and 133 nM in series [3].
Regarding `[2H]C([2H])([2H])Oc1cc2ncnc(Nc3ccc(F)c(Cl)c3)c2cc1NC(=O)/C=C/CN1C[C@@H]2OCCO[C@@H]2C1` [Example 20, (E)-N-(4-((3-Chloro-4-fluorophenyl)amino)-7-(methoxy-D3)quinazolin-6-yl)-4-((4aR,7aS)-tetrahydro 2H-[1,4]dioxino[2,3-c]pyrrol-6(3H)-yl)but-2-enamide], in series [4] (setting [5]), the AUC(0-t) amounted to 1450 ng·h/mL, the Cmax is 868 ng/mL, the half-life is 2.22 h and the Vd is 3.71 L/kg. Besides, in series [4] (setting [6]), the AUC(0-t) came out at 3190 ng·h/mL, the Cmax came out at 336 ng/mL and the half-life is 3.6 h.
